The target of the first experiment is T1, GABABR1a/GABABR2 heterodimer (Homo sapiens, UniProt O75899+Q9UBS5).
T1 construct: expressed in transfected cells; membrane preparation
T1 sequence (Q9UBS5 15-961 limits assumed): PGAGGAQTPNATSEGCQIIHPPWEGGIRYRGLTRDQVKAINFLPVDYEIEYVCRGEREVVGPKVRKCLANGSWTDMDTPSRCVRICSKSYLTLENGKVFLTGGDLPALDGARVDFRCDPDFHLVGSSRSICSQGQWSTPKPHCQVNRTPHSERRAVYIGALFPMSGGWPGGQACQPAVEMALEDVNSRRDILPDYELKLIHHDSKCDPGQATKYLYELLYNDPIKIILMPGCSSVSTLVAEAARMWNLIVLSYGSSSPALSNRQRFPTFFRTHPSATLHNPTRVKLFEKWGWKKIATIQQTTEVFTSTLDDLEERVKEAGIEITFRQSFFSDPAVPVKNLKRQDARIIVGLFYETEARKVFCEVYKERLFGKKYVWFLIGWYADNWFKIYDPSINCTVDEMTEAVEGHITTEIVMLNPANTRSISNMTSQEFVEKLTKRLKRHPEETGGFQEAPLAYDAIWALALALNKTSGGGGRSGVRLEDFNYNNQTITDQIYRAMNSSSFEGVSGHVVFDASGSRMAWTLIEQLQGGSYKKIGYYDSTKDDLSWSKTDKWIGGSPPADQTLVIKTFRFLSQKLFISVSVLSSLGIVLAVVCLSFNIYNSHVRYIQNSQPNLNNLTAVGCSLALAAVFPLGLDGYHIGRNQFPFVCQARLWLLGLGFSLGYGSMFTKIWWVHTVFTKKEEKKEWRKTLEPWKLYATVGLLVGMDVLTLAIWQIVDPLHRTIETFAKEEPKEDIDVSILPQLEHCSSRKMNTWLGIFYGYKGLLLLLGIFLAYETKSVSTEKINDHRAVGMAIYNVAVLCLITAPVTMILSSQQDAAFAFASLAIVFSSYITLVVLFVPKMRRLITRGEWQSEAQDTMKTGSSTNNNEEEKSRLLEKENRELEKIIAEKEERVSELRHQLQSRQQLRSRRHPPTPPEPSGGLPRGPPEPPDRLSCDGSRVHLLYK
T1 sequence (O75899 42-941): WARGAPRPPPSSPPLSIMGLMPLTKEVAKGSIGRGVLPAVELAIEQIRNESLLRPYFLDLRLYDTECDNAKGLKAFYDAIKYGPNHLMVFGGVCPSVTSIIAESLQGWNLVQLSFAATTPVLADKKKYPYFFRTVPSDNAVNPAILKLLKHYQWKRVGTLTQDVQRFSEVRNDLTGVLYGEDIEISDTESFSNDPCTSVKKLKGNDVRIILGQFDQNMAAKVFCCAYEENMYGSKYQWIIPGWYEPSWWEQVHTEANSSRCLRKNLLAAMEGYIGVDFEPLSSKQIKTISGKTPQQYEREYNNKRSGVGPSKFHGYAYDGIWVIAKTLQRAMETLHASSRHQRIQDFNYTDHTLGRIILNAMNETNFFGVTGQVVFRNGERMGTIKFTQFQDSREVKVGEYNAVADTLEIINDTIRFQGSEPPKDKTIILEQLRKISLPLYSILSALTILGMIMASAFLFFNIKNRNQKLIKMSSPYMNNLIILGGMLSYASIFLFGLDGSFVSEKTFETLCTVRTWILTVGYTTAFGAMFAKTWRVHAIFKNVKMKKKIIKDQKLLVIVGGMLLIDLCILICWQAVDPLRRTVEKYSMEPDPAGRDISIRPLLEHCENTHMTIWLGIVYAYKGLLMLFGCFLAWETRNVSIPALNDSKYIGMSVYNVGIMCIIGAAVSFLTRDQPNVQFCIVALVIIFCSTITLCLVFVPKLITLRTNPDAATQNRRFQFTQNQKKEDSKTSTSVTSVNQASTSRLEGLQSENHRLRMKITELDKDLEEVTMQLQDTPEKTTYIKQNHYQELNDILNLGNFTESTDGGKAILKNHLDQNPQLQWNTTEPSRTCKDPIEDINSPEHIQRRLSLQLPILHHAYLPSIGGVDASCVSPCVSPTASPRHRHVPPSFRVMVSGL
Nature of the experiment: GTPγS35 radioligand filtration-binding assay for determination of agonist potency. Conditions: membranes of CHO K1 Flp-In cells expressing GABABR1a/GABABR2; compound alone. In kind it is biochemical. The protocol:
The potency and efficacy of the compounds acting as agonists at the GABAB receptor was also determined in a automated GTPγS^35 radioligand filtration-binding assay.
(§1) The GABAB receptor is a G-protein coupled receptor. Binding of a ligand activates the receptor leading to recruitment of G-protein and a substitution of the G-protein bound GDP to GTP. The G-protein becomes active. The G-protein is inactivated by hydrolysis of GTP to GDP. G-proteins are membrane bound and therefore present in membrane preparations.
(§2) In the GTPγS^35 assay, GTP is not present but instead GTPγS^35 where one of the phosphate groups are substituted to a sulphur group which cannot be hydrolysed. Upon activation of the receptor, radiolabelled GTPγS^35 replaces the GDP. The complex cannot be inactivated and the radiolabelled complex is accumulating. At the end of the assay, the reaction mixture is filtered through a membrane-binding filter. Excess GTPγS^35 is removed by washing and the membrane bound S^35, which correlates to the degree of receptor activation, is measured with a β-Liquid Scintillation Counter.
The human GABABR1a was subcloned into pIRESneo3 (Clontech) using GABABR1a construct as a template (refseqN NM001470). GABABR2 was subcloned into pCDNA5/FRT (Invitrogen) using GABABR2 construct as a template (refseqN NM005458). The Kozak sequence GCCACC was introduced before the start codon in both constructs.
For generation of stable cell lines, CHO K1 Flp-In cells (Invitrogen) were grown in DMEM/F 12 1:1 media supplemented with 10% FBS at 37° C. in a humidified CO2-incubator. The cells were detached with Accutase and 1.5 million cells were seeded into T75 flasks. After 24 h, transfection of the cells were performed with the GABABR2 construct. For generation of cell lines expressing GABABR2, GABABR2 plasmid (1 μg) and pOG44 from Invitrogen (9 μg) were mixed with 30 μl Lipofectamine 2000 in 600 μl OptiMEM for 20 minutes. The cells were exposed to transfection medium for 5 hours and was then replaced with culture medium. After 2 days 0.5 mg/ml Hygromycin were added to culture medium. The cells were cultured for an additional 10 days to establish a stable cell mix expressing GABABR2. For generation of a cell line expressing the GABABR1a/GABABR2 heterodimer, GABABR1a plasmid DNA (8 μg) and Lipofectamine (30 μl) were mixed in 600 μl OptiMEM and incubated for 20 minutes before added to CHO-Flp-In cells expressing GABABR2. After 2 days additional selection agent was added (0.8 mg/ml Geneticin). The cells were cultured for another 10 days to generate a stable mixed population expressing the GABABR1a/GABABR2 heterodimer. The cell line was analyzed by GTPγS^35 assay with GABA as agonist.
GTPγS^35 radioligand filtration-binding assays were performed using an automated workstation at 30° C. for 1 hour in assay buffer (50 mM HEPES, 40 mM NaCl, 1 mM MgCl2×6H2O, 30 μg/mL Saponin, pH 7.4 at RT) containing 0.025 μg/μL of membrane protein (prepared from the cell line described above), 10 μM GDP and 0.55 nCi/μL GTPγS^35 in a final volume of 60 μL. The reaction was started by the addition of compounds (GABA was always included as a positive control), start concentration 100 μM dilution factor 3. The reaction was terminated and membranes collected by addition of ice-cold wash buffer (50 mM Tris-HCl, 5 mM MgCl2×6H2O, 50 mM NaCl, pH 7.4 at 4° C.) followed by rapid filtration under vacuum through a MultiScreen HTS 384 FB filter plate. Repeated washing of the filters with ice-cold wash buffer washed the unbound radioligand away. The filter plates were dried for 1½-2 hours at 50° C., then 8 μL scintillation liquid was added per well followed by incubation at RT for at least 20 minutes before bound radioactivity was determined using a β-Liquid Scintillation Counter (1450 Microbeta Trilux, Wallac, Finland)
100% activation (max) is calculated as the mean value for wells containing 1 mM GABA. […]
By EC50 is commonly meant the concentration at which the effect is half-maximal. The compound `CCCn1c(=O)n(Cc2ccc(Cl)cc2)c(=O)c2c1nc1c([n+]2[O-])CCCC1` [Example 21, 3-(4-chlorobenzyl)-1-propyl-6,7,8,9-tetrahydrobenzo[g]pteridine-2,4(1H,3H)-dione 5-oxide] had an EC50 of 7700 nM.

`CCCn1c(=O)n(Cc2ccc(Cl)cc2)c(=O)c2nc3c(nc21)C(C)CC3C` (mixture of isomers) [Example 12, 3-(4-chlorobenzyl)-6,8-dimethyl-1-propyl-7,8-dihydro-1H-cyclopenta[g]pteridine-2,4(3H,6H)-dione] had an EC50 of 1400 nM.

For the compound `CCCn1c(=O)n(Cc2ccc(Cl)cc2)c(=O)c2nc(CC)c(CC)nc21` [Example 13, 3-(4-chlorobenzyl)-6,7-diethyl-1-propylpteridine-2,4(1H,3H)-dione], the midpoint of the response, the EC50, lay at 800 nM.

On to `CCCn1c(=O)n(Cc2ccc(Cl)cc2)c(=O)c2nc3c(nc21)CCC3` [Example 22, 3-(4-chlorobenzyl)-1-propyl-7,8-dihydro-1H-cyclopenta[g]pteridine-2,4(3H,6H)-dione], for which the EC50 worked out at 3700 nM.

“6-tert-butyl-3-(4-chlorobenzyl)-1-propylpteridine-2,4(1H,3H)-dione and 7-tert-butyl-3-(4-chlorobenzyl)-1-propylpteridine-2,4(1H,3H)-dione [Example 23]” returned an EC50 of 2200 nM.

`O=c1c2nc3c(nc2n(CC(O)C(F)(F)F)c(=O)n1Cc1ccc(Cl)cc1)CCCC3` (stereo not shown) [Example 19, 3-(4-chlorobenzyl)-1-(3,3,3-trifluoro-2-hydroxypropyl)-6,7,8,9-tetrahydrobenzo[g]pteridine-2,4(1H,3H)-dione] showed an EC50 of 1300 nM.

As for `C=CCn1c(=O)n(Cc2ccc(Cl)cc2)c(=O)c2nc3c(nc21)CCCC3` [Example 14, 1-allyl-3-(4-chlorobenzyl)-6,7,8,9-tetrahydrobenzo[g]pteridine-2,4(1H,3H)-dione], the EC50 came out at 1600 nM.

In the case of `O=c1c2nc3c(nc2n(CCn2cccc2)c(=O)n1Cc1ccc(Cl)cc1)CCCC3` [Example 17, 3-(4-chlorobenzyl)-1-[2-(1H-pyrrol-1-yl)ethyl]-6,7,8,9-tetrahydrobenzo[g]pteridine-2,4(1H,3H)-dione], the EC50 came to 1600 nM.

On to `CC(C)(C)C(=O)Cn1c(=O)n(Cc2ccc(Cl)cc2)c(=O)c2nc3c(nc21)CCCC3` [Example 18, 3-(4-chlorobenzyl)-1-(3,3-dimethyl-2-oxobutyl)-6,7,8,9-tetrahydrobenzo[g]pteridine-2,4(1H,3H)-dione], for which the midpoint of the response, the EC50, lay at 500 nM.

In another experiment the target is T2, GABAB(1A,2) receptor heterodimer (Homo sapiens, UniProt O75899+Q9UBS5).
T2 construct: expressed in transfected cells; membrane preparation
T2 sequence (Q9UBS5 15-961 limits assumed): as the sequence (Q9UBS5 15-961 limits assumed) above
T2 sequence (O75899 42-941): as the sequence (O75899 42-941) above
Nature of the experiment: GTPγS35 radioligand filtration-binding assay for determination of PAM potency. In kind it is biochemical. Conditions: membranes of CHO-K1 cells expressing GABABR1a/GABABR2; concentration required to reduce GABA's EC50 by 50%; PAM at 10, 1, 0.1 and 0.01 μM; read-out: Mean (EC50 derived) PAM EC50.
Text: The effect of GABA in an automated GTPγS^35 radioligand filtration-binding assay in CHO cells expressing the GABAB(1A,2) receptor heterodimer was studied in the presence or absence of the positive allosteric modulator test compounds. […]
as §1, §2
GABABR1a and GABABR2 were cloned from human brain cDNA and subcloned into pCI-Neo (Promega) and pALTER-1 (Promega), respectively.
In order to optimise the Kozak consensus sequence of GABABR2, in situ mutagenesis was performed using the Altered Sites Mutagenesis kit according to manufacturer's instruction (Promega) with the following primer,
5′-[…]-3′. The optimised GABABR2 was then restricted from pALTER-1 with Xho I+Kpn I and subcloned into the mammalian expression vector pcDNA3.1(−)/Zeo (Invitrogen) to produce the final construct, pcDNA3.1(−)/Zeo-GABABR2.
For generation of stable cell lines, CHO-K1 cells were grown in Nut mix F-12 (Ham) media supplemented with 10% FBS, 100 U/ml Penicillin and 100 μg/ml Streptomycin at 37° C. in a humidified CO2-incubator. The cells were detached with 1 mM EDTA in PBS and 1 million cells were seeded in 100 mm petri dishes. After 24 hours the culture media was replaced with OptiMEM and incubated for 1 hour in a CO2-incubator.
For generation of a cell line expressing the GABABR1a/GABABR2 heterodimer, GABABR1a plasmid DNA (4 μg) GABABR2 plasmid DNA (4 μg) and lipofectamine (24 μl) were mixed in 5 ml OptiMEM and incubated for 45 minutes at room temperature. The cells were exposed to the transfection medium for 5 hours, which then was replaced with culture medium. The cells were cultured for an additional 10 days before selection agents (300 μg/ml hygromycin and 400 μg/ml geneticin) were added. Twenty-four days after transfection, single cell sorting into 96-well plates by flow cytometry was performed using a FACS Vantage SE (Becton Dickinson, Palo Alto, Calif.). After expansion, the GABAB receptor functional response was tested by measuring the GABAB receptor dependent release of intracellular calcium in a fluorescence imaging plate reader (FLIPR). The clone with the highest functional response was collected, expanded and then subcloned by single cell sorting. The clonal cell line with the highest peak response in the FLIPR was used in the present study.
GTPγS^35 radioligand filtration-binding assays were performed using an automated workstation at 30° C. for 1 hour in assay buffer (50 mM HEPES, 40 mM NaCl, 1 mM MgCl2×6H2O, 30 μg/mL Saponin, pH 7.4 at RT) containing 0.025 μg/μL of membrane protein (prepared from the cell line described above), 10 μM GDP and 0.55 nCi/μL GTPγS^35 in a final volume of 60 μL. The reaction was started by the addition of serially diluted GABA (final start concentration 1 mM dilution factor 3) in the presence or absence of four concentrations (final conc 10, 1, 0.1 and 0.01 μM) of PAM. The reaction was terminated and membranes collected by addition of ice-cold wash buffer (50 mM Tris-HCl, 5 mM MgCl2×6H2O, 50 mM NaCl, pH 7.4 at 4° C.) followed by rapid filtration under vacuum through a MultiScreen HTS 384 FB filter plate. […]
Turning to `CCCn1c(=O)n(Cc2ccc(Cl)cc2)c(=O)c2nccnc21` [Example 2, 3-(4-chlorobenzyl)-1-propylpteridine-2,4(1H,3H)-dione], the EC50 stood at 4300 nM.

For `COc1ccc(Cn2c(=O)n(Cc3ccc(Cl)cc3)c(=O)c3nccnc32)c(OC)c1` [Example 1, 3-(4-chlorobenzyl)-1-(2,4-dimethoxybenzyl)pteridine-2,4(1H,3H)-dione], the EC50 came to 6000 nM.

Regarding `O=c1c2nccnc2n(Cc2ccccc2)c(=O)n1Cc1ccc(Cl)cc1` [Example 7, 1-benzyl-3-(4-chlorobenzyl)pteridine-2,4(1H,3H)-dione], the EC50 worked out at 5100 nM.

As to `O=C(c1ccccc1)c1ccc(Cn2c(=O)n(Cc3ccc(Cl)cc3)c(=O)c3nccnc32)cc1` [Example 10, 1-(4-benzoylbenzyl)-3-(4-chlorobenzyl)pteridine-2,4(1H,3H)-dione], the EC50 was 800 nM.

`O=c1c2nccnc2n(CCc2ccccc2)c(=O)n1Cc1ccc(Cl)cc1` [Example 11, 3-(4-chlorobenzyl)-1-(2-phenylethyl)pteridine-2,4(1H,3H)-dione]: the EC50 amounted to 1300 nM.

Take `CC(C)(C)C(=O)Cn1c(=O)n(Cc2ccc(Cl)cc2)c(=O)c2nccnc21` [Example 5, 3-(4-chlorobenzyl)-1-(3,3-dimethyl-2-oxobutyl)pteridine-2,4(1H,3H)-dione]: the EC50 turned out to be 2900 nM.

Turning to `O=c1c2nccnc2n(CC2CCCCC2)c(=O)n1Cc1ccc(Cl)cc1` [Example 4, 3-(4-chlorobenzyl)-1-(cyclohexylmethyl)pteridine-2,4(1H,3H)-dione], the EC50 was 600 nM.

Consider `COc1ccc(Cn2c(=O)n(Cc3ccc(Cl)cc3)c(=O)c3nccnc32)cc1` [Example 9, 3-(4-chlorobenzyl)-1-(4-methoxybenzyl)pteridine-2,4(1H,3H)-dione], for which the EC50 stood at 7000 nM.

With `O=c1c2nccnc2n(Cc2ccc(Cl)cc2)c(=O)n1Cc1ccc(Cl)cc1` [Example 8, 1,3-bis(4-chlorobenzyl)pteridine-2,4(1H,3H)-dione], the EC50 came out at 2400 nM.

In the case of `C[Si](C)(C)CCn1c(=O)n(Cc2ccc(Cl)cc2)c(=O)c2nccnc21` [Example 3, 3-(4-chlorobenzyl)-1-[2-(trimethylsilyl)ethyl]pteridine-2,4(1H,3H)-dione], the EC50 was determined as 600 nM.

The record behind these values is US20090088439A1, “Diazinane Compounds” (priority 2007, published 2009).
